# Assay results: ChEMBL document CHEMBL1201862, “PubChem BioAssay data set” (2004)
# Activity calls are given as the source filed them.
# Experiments:
# cells [1] = format: functional
# [2] = test system: Streptococcus sp. 'group A'; experiment: growth inhibition of control SK(-) GAS strain, dose response, counter-screen for streptokinase expression inhibitor project, luminescence, kanamycin, BacTiterGlo, confirmation (AID 1900); format: functional, organism-based
# cells [3] = format: functional, cell-based
# Streptokinase A = biological target: T1, Streptokinase A (Streptococcus pyogenes serotype M1, UniProt P10520); experiment: S. pyogenes streptokinase expression inhibitors, potency, dose response, plasminogen activation absorbance, OD405 (AID 1914); format: functional, Streptococcus pyogenes M1 GAS;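 also: secreted streptokinase activity via plasminogen activation per viability signal from cell pellet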
# T1 sequence (P10520 whole entry): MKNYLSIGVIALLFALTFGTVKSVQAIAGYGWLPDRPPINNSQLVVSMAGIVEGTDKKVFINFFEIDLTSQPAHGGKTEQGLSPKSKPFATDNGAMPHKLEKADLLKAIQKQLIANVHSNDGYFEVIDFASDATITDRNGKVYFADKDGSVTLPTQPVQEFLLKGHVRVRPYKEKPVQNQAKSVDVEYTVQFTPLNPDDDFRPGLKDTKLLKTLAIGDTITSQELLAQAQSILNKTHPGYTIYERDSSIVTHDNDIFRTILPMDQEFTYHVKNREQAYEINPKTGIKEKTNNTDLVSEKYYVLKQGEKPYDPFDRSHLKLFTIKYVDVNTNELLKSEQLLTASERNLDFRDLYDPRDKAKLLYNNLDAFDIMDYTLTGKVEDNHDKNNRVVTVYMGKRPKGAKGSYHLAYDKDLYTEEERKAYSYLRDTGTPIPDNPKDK
# cells [4] = format: functional, cell-based; remark: listed apart in the source
# Streptococcus = experiment: Group A Streptococcus viability loss, dose response, counter-screen for streptokinase expression inhibitor project, luminescence, BacTiterGlo (AID 1915); format: functional, organism-based;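 also: potency for reduction of bacterial viability or growth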
# [5] = biological target: FAD-linked sulfhydryl oxidase ALR (Homo sapiens, UniProt P55789); experiment: inhibitors of human ALR sulfhydryl oxidase, dose response, biochemical, H2O2 detection, luminescence, cherry-pick (AID 493248)
# [6] = biological target: T2, Calpain-2 catalytic subunit (Sus scrofa, UniProt P43367); experiment: pig calpain II inhibitor potency, dose response, biochemical, fluorogenic peptide substrate (AID 1420); format: functional
# T2 sequence (P43367 whole entry): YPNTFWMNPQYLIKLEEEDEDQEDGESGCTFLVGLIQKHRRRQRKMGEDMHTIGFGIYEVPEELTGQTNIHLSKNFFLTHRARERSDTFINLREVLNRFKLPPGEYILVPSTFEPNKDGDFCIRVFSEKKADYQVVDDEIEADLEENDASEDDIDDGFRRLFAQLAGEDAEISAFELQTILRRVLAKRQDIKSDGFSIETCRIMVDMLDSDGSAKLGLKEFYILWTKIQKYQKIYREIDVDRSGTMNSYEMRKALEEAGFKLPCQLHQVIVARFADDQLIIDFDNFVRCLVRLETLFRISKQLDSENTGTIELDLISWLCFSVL
# [7] = NIH-3T3 fibroblast cytotoxicity, dose response, cytotoxicity control, cell-based, fluorescence, Alamar Blue, secondary assay (AID 2327); format: functional;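 also: NIH-3T3 mouse fibroblasts cultured with fluconazole at 8 µg/mL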
# [8] = C. albicans growth with fluconazole, confirmation, fluorescence, retest (AID 2467); format: functional, cell-based
# [9] = inhibitors of intracellular T. cruzi replication, confirmation, NIH3T3 host cells, beta-gal luminescence (AID 2044); format: functional, cell-based;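 also: intracellular parasites grown in NIH/3T3 mouse fibroblasts as host cells; luminescent beta-galactosidase reporter signal from transgenic T. cruzi replicating inside host cells; inhibitors lower the luminescence signal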
# [10] = cytotoxicity toward NIH3T3 fibroblasts, dose response, counter-screen, cell-based, ATP luminescence, mouse fibroblasts (AID 2010); format: functional;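 also: cells exposed to compound for about 90 hours before reading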
# [11] = biological target: T3, Corticotropin-releasing factor receptor 2/Corticotropin-releasing factor-binding protein (Homo sapiens, UniProt P24387+Q13324); experiment: Dose Response confirmation of uHTS hits for small molecule antagonists of the CRF-binding protein and CRF-R2 receptor complex.; format: functional; settings: read-out: IC50_Mean
# T3 sequence (Q13324 whole entry): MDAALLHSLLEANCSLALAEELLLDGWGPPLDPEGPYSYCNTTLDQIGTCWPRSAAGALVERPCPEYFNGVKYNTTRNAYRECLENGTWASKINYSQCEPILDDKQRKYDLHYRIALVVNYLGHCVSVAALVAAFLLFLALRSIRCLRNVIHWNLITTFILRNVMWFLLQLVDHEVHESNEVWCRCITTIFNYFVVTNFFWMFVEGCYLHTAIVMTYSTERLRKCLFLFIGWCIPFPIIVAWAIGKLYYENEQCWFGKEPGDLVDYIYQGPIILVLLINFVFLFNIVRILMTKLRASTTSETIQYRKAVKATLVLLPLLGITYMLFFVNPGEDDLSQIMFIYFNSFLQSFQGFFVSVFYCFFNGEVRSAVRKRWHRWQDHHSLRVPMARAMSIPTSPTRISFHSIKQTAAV
# T3 sequence (P24387 whole entry): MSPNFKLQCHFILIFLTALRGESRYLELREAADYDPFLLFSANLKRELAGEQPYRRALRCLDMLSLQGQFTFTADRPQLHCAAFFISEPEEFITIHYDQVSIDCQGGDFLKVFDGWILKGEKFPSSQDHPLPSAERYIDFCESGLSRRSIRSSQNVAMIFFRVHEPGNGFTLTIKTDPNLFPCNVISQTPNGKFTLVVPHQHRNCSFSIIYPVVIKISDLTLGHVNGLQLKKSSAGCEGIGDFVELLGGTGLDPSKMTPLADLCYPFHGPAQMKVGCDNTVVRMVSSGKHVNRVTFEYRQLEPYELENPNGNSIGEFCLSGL
# [12] = biological target: T3, Corticotropin-releasing factor receptor 2/Corticotropin-releasing factor-binding protein; experiment: activators of CRF receptor 2 with binding protein – uHTS hits, confirmation (AID 602473); format: functional; settings: read-out: EC50_Mean
# Paired box protein Pax-8 = Paired box protein Pax-8 (Homo sapiens, UniProt Q06710); experiment: inhibitors of PAX8-driven TPO luciferase reporter, dose response, RMG-I cells, cherry-pick (AID 687027); format: functional, cell-based;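 also: luciferase reporter driven by Pax8 target thyroperoxidase promoter measured by SteadyGlo luminescence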
# [13] = biological target: T4, Rac GTPase-activating protein 1 (Homo sapiens, UniProt Q9H0H5); experiment: MgcRacGAP GTPase-activating activity inhibitors, confirmation, biochemical, ADP Hunter fluorescence, primary and confirmatory (AID 624330); format: functional
# T4 sequence (Q9H0H5 whole entry): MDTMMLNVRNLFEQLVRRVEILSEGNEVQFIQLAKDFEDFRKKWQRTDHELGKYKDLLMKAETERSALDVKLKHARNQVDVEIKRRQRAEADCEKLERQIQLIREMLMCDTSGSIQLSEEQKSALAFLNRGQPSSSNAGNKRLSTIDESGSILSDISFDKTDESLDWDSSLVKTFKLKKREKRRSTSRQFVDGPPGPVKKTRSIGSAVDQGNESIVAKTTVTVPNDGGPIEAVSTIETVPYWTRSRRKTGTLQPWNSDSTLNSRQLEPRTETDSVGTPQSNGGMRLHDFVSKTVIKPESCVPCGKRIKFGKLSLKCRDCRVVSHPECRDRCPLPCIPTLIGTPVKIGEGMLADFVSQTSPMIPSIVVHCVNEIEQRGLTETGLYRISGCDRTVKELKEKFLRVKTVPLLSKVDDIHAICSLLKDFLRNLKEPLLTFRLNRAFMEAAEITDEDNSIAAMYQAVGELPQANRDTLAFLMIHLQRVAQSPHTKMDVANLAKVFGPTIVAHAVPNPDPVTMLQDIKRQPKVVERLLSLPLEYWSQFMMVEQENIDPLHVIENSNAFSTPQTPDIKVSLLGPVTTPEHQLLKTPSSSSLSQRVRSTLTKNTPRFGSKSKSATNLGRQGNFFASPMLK
# [14] = biological target: T5, RNA-binding protein pos-1 (Caenorhabditis elegans, UniProt G5EF15); experiment: inhibitors of POS-1/mex-3 RNA binding, dose response, biochemical, fluorescence polarization (AID 1964);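 also: purified POS-1 fused to maltose binding protein made in E. coli; potency of compounds blocking POS-1 binding to fluorescent RNA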
# T5 sequence (G5EF15 whole entry): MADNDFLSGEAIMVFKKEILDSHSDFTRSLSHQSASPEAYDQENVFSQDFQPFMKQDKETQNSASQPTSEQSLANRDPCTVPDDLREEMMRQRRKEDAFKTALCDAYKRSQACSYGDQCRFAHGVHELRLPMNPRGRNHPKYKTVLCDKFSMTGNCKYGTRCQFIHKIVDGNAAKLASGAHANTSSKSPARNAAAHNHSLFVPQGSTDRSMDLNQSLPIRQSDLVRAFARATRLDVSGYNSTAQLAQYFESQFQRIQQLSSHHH
# [15] = biological target: T6, Zinc finger protein mex-5 (Caenorhabditis elegans, UniProt Q9XUB2); experiment: MEX-5/TCR-2 RNA interaction inhibitors, dose response, biochemical, C. elegans, fluorescence polarization (AID 1960)
# T6 sequence (Q9XUB2 whole entry): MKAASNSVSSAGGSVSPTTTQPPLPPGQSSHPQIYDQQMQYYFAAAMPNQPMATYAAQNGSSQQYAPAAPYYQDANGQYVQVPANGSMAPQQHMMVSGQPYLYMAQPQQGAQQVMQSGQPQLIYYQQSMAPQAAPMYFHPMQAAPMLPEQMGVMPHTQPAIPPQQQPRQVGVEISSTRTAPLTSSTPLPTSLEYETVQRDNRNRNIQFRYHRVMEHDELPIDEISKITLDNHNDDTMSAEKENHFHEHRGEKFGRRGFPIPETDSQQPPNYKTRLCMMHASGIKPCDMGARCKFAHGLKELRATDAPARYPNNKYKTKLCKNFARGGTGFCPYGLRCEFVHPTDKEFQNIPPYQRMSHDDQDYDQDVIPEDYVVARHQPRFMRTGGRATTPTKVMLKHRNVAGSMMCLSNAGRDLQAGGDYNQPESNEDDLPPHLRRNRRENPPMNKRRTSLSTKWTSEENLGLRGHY
# FAD-linked sulfhydryl oxidase ALR, sequence (P55789 whole entry): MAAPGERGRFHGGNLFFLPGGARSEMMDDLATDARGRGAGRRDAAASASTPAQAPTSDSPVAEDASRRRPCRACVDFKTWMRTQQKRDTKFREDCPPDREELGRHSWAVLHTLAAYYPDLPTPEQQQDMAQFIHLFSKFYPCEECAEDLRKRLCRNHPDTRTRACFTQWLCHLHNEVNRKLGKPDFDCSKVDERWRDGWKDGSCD
# Paired box protein Pax-8, sequence (Q06710 whole entry): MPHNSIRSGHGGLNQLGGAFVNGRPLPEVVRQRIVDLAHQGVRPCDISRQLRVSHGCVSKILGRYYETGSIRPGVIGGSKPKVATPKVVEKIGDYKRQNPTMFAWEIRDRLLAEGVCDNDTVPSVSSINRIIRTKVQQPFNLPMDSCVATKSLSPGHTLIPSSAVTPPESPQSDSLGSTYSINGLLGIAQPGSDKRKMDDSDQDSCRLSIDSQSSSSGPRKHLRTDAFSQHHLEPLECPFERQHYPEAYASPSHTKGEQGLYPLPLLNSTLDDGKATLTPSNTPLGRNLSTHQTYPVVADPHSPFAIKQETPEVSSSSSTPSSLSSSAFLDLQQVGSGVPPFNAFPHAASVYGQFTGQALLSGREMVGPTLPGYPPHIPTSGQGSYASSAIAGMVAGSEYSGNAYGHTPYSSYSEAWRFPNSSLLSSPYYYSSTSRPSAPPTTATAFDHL
compound,measurement,setting,value
CCOc1ccc(OCC(=O)Nc2ccc(OC)cc2)cc1,IC50,cells [1],26.4 µM (active)
O=C(NCCS(=O)(=O)N1CCN(c2ccccc2F)CC1)C1CC(=O)N(c2ccc(F)cc2)C1 (stereo not given),EC50,[2],> 150 µM (not active)
same,EC50,cells [3],> 350 µM (not active)
same,EC50,Streptokinase A,> 150 µM (not active)
same,EC50,cells [4],> 350 µM (not active)
same,EC50,Streptococcus,> 150 µM (not active)
CC(C)(C)c1ccc(-c2nc3cc(N)ccc3o2)cc1,AC50,[5],0.751 µM (active)
CCCCn1c(S)nnc1-c1csc2c1CCC(C)C2 (stereo not given),IC50,[6],18.2 µM (not active)
CC(C)Cn1c(N)c(C(=O)COC(=O)c2cccc(Cl)c2)c(=O)n(C)c1=O,IC50,[6],6.14 µM (active)
COc1ccc(-[n+]2c(-c3ccc(Br)cc3)cn3c2SC(C)C3)cc1 (stereo not given),EC50,[7],> 160 µM (inactive)
same,EC50,[8],2.96 µM (active)
same,EC50,[9],0.684 µM (active)
same,EC50,[10],> 30 µM (not active)
CC(C)C[C@H](NC(=O)c1[nH]cnc1C(=O)NCc1ccccc1)C(=O)OC(C)(C)C,IC50,[6],10.8 µM (not active)
CCCS(=O)(=O)N1CCCC(C(=O)NCCCN(CC)c2cccc(C)c2)C1 (stereo not given),AC50,[5],1.48 µM (active)
same,IC50,[11],> 47.1 µM (inactive)
same,EC50,[12],> 53 µM (inactive)
Cc1cc(NC(=S)N(Cc2cccc(Br)c2)CC2CCC(C(=O)O)CC2)ccc1Cl (stereo not given),IC50,[6],11.3 µM (not active)
Cc1ccc(C)c(OC(=O)c2cncc(Br)c2)c1,EC50,[7],> 160 µM (inactive)
CCOC(=O)CCCNC(=O)COC(=O)c1cc(Br)c(Br)s1,IC50,cells [1],13.2 µM (active)
CCCNC(=O)c1c(CSc2ccccc2)noc1C(=O)NCc1ccccc1,IC50,[6],3.24 µM (not active)
CCCCN(CCCC)C(=O)/C=C/c1cccc([N+](=O)[O-])c1,IC50,[6],19.4 µM (not active)
C=CC[C@@H]1C=C(C)C[C@H](C)C[C@H](OC)[C@H]2O[C@@](O)(C(=O)C(=O)N3CCCC[C@H]3C(=O)O[C@H](/C(C)=C/[C@@H]3CC[C@@H](O)[C@H](OC)C3)[C@H](C)[C@@H](O)CC1=O)[C@H](C)C[C@@H]2OC,EC50,[7],> 160 µM (inactive)
same,EC50,[8],0.035 µM (active)
Cc1cccc(/C=C/C(=O)c2ccc(N3CCOCC3)cc2)c1,IC50,[6],15.7 µM (not active)
O=C(O)c1cccc(S(=O)(=O)Nc2ccc(N3CCCCC3)cc2)c1,AC50,[5],1.75 µM (active)
NS(=O)(=O)c1ccc(NNC(=O)c2ccc(Br)o2)c([N+](=O)[O-])c1,AC50,[5],8.06 µM (active)
Cc1noc(C)c1C(=O)N1CCCC(Nc2ccc(C(C)C)cc2)C1 (stereo not given),AC50,[5],7.67 µM (active)
Cc1ccc(NCc2nnc3n2CCCCC3)c(C)c1,AC50,[5],1.35 µM (active)
COc1ccc(S(=O)(=O)Nc2ccc3c(c2)C(=O)N([C@H](C)CO)C[C@@H](C)[C@H](CN(C)C(=O)Nc2ccc(C(F)(F)F)cc2)OCCCC[C@H](C)O3)cc1,AC50,Paired box protein Pax-8,7.32 µM (active)
O=C(O/N=C1\CCS(=O)(=O)c2sccc21)c1ccc(F)cc1,IC50,[6],< 0.4 µM (not active)
C/C(CC(=O)Nc1ccc(N(C)C)cc1)=N\NC(=O)c1ccc([N+](=O)[O-])cc1,AC50,[5],5.09 µM (active)
same,IC50,[13],62.3 µM (active)
COc1ccc(C(=O)N/N=C/c2ccc(OC)c(CN3CCN(c4ccc(F)cc4)CC3)c2)cc1,AC50,Paired box protein Pax-8,35.8 µM (active)
COc1ccc(-c2cc(C(=O)N/N=C(\C)c3ccco3)c3ccccc3n2)c(OC)c1,EC50,[14],> 300 µM (not active)
same,EC50,[2],> 150 µM (not active)
same,EC50,[15],> 300 µM (not active)
same,EC50,Streptokinase A,> 150 µM (not active)
same,EC50,Streptococcus,> 150 µM (not active)
ClCc1csc(-c2ccc(Cl)cc2)n1,AC50,[5],4.37 µM (active)
